The text below walks through data of patent publication US4590063A, “Anticonvulsants” (Adria Laboratories, Inc., priority 1985, dated 1986).

By LD50 is commonly meant the dose at which mortality reaches 50%. As a reminder, the ED50 is the midpoint of the dose-response relation.

One series is described as follows: in vivo. To be noted: mouse; for LD50 at 24 h: oral gavage, mice, read-out: Acute (24 hr.) Toxicity Approximate LD50; for safety ratio (LD50/ED50): po, LD50 (24 hr., mice) divided by ED50 (supramaximal electroshock), read-out: Approximate Safety Ratio LD50/ED50. The method, then: (§1) Male albino ICR-swiss mice fasted for 5-6 hours and weighing 20-26 grams are used in all procedures. The compounds of the Examples 1 and 2 are dissolved in water and administered in dosages of 0.01 cc per gram body weight to groups of twelve mice via oral gavage at the milligrams per kilograms per body weight in the table below. One hour after administration of the compound, the mice are given a transcranal electroshock, 60 hertz, 25 milliamps of 0.2 second duration. This stimulus is approximately 3 times the current required to produce tonic flexion-extension convulsions in 100% of the control mice tested. The animals are then observed, and the number undergoing convulsion noted. When the ED50 is bracketed (at least one dose above and one dose below), an estimate of the ED50 is calculated. The acute LD50 is determined as follows: Groups of four mice each are given selected doses of the test compound and placed in plastic cages with food and water ad lib. Twenty-four hours later, the number of dead mice is noted. When the LD50 is bracketed (at least one dose above and one below) an estimate of the LD50 is calculated. The values for Valproic acid and Dilantin are included in the table for comparison.

The subject of series [1] is tonic flexion-extension convulsions. In words: Supramaximal electroshock antagonism (suppression of convulsions induced in mice by transcranal electroshock). The settings on record: Mus musculus, oral gavage, 1 hour after administration, 60 hertz, 25 milliamps, 0.2 second, read-out: Supramaximal Electroshock Antagonism Approximate ED50. It is filed as in vivo, Male albino ICR-swiss mice. The method, then:
These examples illustrate the use of the compounds described in Examples 1 and 2 in suppressing convulsions induced in mice by supramaxal shock.
as §1
(Protection in the maximal electroshock model is a classic sign of anticonvulsant action.)

Series [2] can be described thus: Solubility in water and ethyl alcohol. To be noted: recrystallized product. The format is physicochemical.
The conditions of series [3]: treatment of epilepsy, known drug; cited from earlier work.

For the compound `COc1cc(C(=O)NCCN(C)C)c(OC)c2ccccc12.Cl` [1,4-dimethoxy-N-(2-dimethylaminoethyl)-2-naphthalene carboxamide hydrochloride], in “in vivo”, the median lethal dose (LD50) at 24 h is approximately 750 mg/kg and the safety ratio (LD50/ED50) was approximately 17. For the same compound, in series [1], the ED50 was approximately 45 mg/kg. For the same compound, in series [2], the “solubility in ethyl alcohol” value is “sparingly soluble” and the solubility in water entry is on record as “sparingly soluble”.

Regarding `O=C1NC(=O)C(c2ccccc2)(c2ccccc2)N1` [Dilantin, phenytoin, reference compound], the 50% lethal dose (LD50) at 24 h in the series “in vivo” was approximately 417 mg/kg. For the same compound, in series [1], the 50% effective dose (ED50) is approximately 13 mg/kg. Moreover, the “serious chronic side effects” value in series [3] was “megaloblastic anemia and osteomalacia”.

Consider `CCCC(CCC)C(=O)O` [Valproic Acid, reference compound], for which the LD50 at 24 h in “in vivo” is approximately 1420 mg/kg. For the same compound, the ED50 in series [1] was approximately 600 mg/kg. Besides, the “dosage needed to be effective relative to toxic dosage” value in series [3] is “very close to those which are acutely toxic”.

Turning to `COc1cc(C(=O)NCCCN(C)C)c(OC)c2ccccc12.Cl` [1,4-dimethoxy-N-(3-dimethylaminopropyl)-2-naphthalenecarboxamide hydrochloride], in “in vivo”, the LD50 at 24 h is approximately 750 mg/kg and the safety ratio (LD50/ED50) is approximately 10. In series [1], the ED50 was approximately 75 mg/kg. In series [2], the “solubility in ethyl alcohol” value is given as “sparingly soluble” and the solubility in water entry is listed as “sparingly soluble”.
